Laboratory results taken from PMC10141516 (Pharmaceutics, 2023).

Columns and labels:
[1] = oral; cited from earlier work
[2] = Compatibility study API-excipient / API-API (total impurities by HPLC); assay type: physicochemical
Procedure: The column used was the Gemini C18 column (5.0 μm, 250 mm). […] The mobile phase was filtered through a 0.4 μm polypropylene membrane filter and degassed via sonication. […] The column and sample thermostats were set to 35 °C and 5 °C, respectively. […] The compatibility study was performed using appearance and impurity tests to confirm the interaction between each API and the excipient. Each API was mixed with mannitol, microcrystalline cellulose, lactose, silicified microcrystalline cellulose, calcium hydrogen phosphate anhydrous, pregelatinized starch, sodium starch glycolate, crospovidone, sodium croscarmellose, magnesium stearate, colloidal silicon dioxide, sodium stearyl fumarate, hydroxypropyl cellulose, calcium hydroxide, citric acid, and OPADRY II pink in a 1:1 (w/w) ratio and put into each clear glass vial.

[3] = Apparent solubility test (USP <1236>); settings: for solubility: 20 °C, thermodynamic from solid
Procedure: Then, 200 μL of each solvent was added and stirred at 400 rpm. The temperature of the sample was maintained at 20 ± 2 °C. After shaking for 30 s every 5 min, 200 μL of each solvent was added until no particles of the API were visible. The apparent solubility of the two main components was estimated through the point at which all of the API dissolved and became clear.

[4] = cited from earlier work
[5] = Stability study of the APIs in pH buffers (total impurity by HPLC); assay type: physicochemical
Procedure: The column used was the Gemini C18 column (5.0 μm, 250 mm). Mobile phase A of the impurity study was prepared with KH2PO4 buffer (v/v, solution adjusted to pH 6.0 with 1 M KOH): acetonitrile: methanol = 85: 10: 5 (v/v/v), and mobile phase B was prepared with 90% acetonitrile. The mobile phase was filtered through a 0.4 μm polypropylene membrane filter and degassed via sonication. The diluted solution was prepared with KH2PO4 buffer (v/v, solution adjusted to pH 6.0 with 1 M KOH) and acetonitrile at a ratio of 7:3 (v/v). The wavelength, flow rate, and injection volume were set to 220 nm, 1.0 mL/min, and 20 μL, respectively. The column and sample thermostats were set to 35 °C and 5 °C, respectively. In the case of the impurity study, the analysis was performed by changing the composition of the mobile phase for 80 min using a gradient elution method for 80 min.
[…] […] We performed a calibration test, and the sample was diluted with a diluted solution and prepared at a concentration of 0.05–1 mg/mL.

## CCOc1ccc(Cc2cc([C@@H]3O[C@H](CO)[C@@H](O)[C@H](O)[C@H]3O)ccc2Cl)cc1 [Dapagliflozin, (1S)-1,5-Anhydro-1-C-[4-chloro-3-[(4-ethoxyphenyl)methyl]phenyl]-D-glucitol (S)-propane-1,2-diol (1:1) monohydrate]
[1]
  Tmax: 2 h
[2]; 20 ± 2 °C/60 ± 5% RH, 2 Weeks
  Total Impurities: 0.10%
[2]; 20 ± 2 °C/60 ± 5% RH, 4 Weeks
  Total Impurities: 0.09%
[2]; 40 ± 2 °C/75 ± 5% RH, 2 Weeks
  Total Impurities: 0.08%
[2]; 40 ± 2 °C/75 ± 5% RH, 4 Weeks
  Total Impurities: 0.12%
[2]; Initial
  Total Impurities: 0.09%
[3]; acetonitrile, organic solvent or mixture
  solubility: 33 to 100 mg/mL
[3]; buffer solution, pH 3, aqueous buffer
  solubility: 0.1 to 1 mg/mL
[3]; buffer solution, pH 4, aqueous buffer
  solubility: 0.1 to 1 mg/mL
[3]; buffer solution, pH 5, aqueous buffer
  solubility: 0.1 to 1 mg/mL
[3]; buffer solution, pH 6, aqueous buffer
  solubility: 0.1 to 1 mg/mL
[3]; buffer solution, pH 6.8, aqueous buffer
  solubility: 0.1 to 1 mg/mL
[3]; buffer solution, pH 7, aqueous buffer
  solubility: 0.1 to 1 mg/mL
[3]; buffer solution, pH 8, aqueous buffer
  solubility: 0.1 to 1 mg/mL
[3]; buffer solution, pH 9, aqueous buffer
  solubility: 0.1 to 1 mg/mL
[3]; buffer solution, pH 10, aqueous buffer
  solubility: 0.1 to 1 mg/mL
[3]; buffer solution, pH 11, aqueous buffer
  solubility: 0.1 to 1 mg/mL
[3]; deionized water, water
  solubility: 0.1 to 1 mg/mL
[3]; ethanol, organic solvent or mixture
  solubility: 33 to 100 mg/mL
[3]; methanol, organic solvent or mixture
  solubility: 100 to 1000 mg/mL
[3]; other solvents (water, pH 1.2 to 12.0 buffers)
  apparent solubility, USP <1236> term: very slightly soluble
[3]; pH 1.2 buffer solution, pH 1.2, aqueous buffer
  solubility: 0.1 to 1 mg/mL
[3]; pH 2.0 buffer solution, pH 2, aqueous buffer
  solubility: 0.1 to 1 mg/mL
[3]; pH 12.0 buffer solution, pH 12, aqueous buffer
  solubility: 0.1 to 1 mg/mL
[4]
  BCS: Class 3
[5]; pH 1.2 buffer, 20 ± 2 °C/60 ± 5% RH, 3 Days
  Total Impurity: 0.08%
[5]; pH 1.2 buffer, 20 ± 2 °C/60 ± 5% RH, 7 Days
  Total Impurity: 0.12%
[5]; pH 1.2 buffer, 40 ± 2 °C/75 ± 5% RH, 3 Days
  Total Impurity: 0.11%
[5]; pH 1.2 buffer, 40 ± 2 °C/75 ± 5% RH, 7 Days
  Total Impurity: 0.73%
[5]; pH 1.2 buffer, Initial
  Total Impurity: 0.06%
[5]; pH 2.0 buffer, 20 ± 2 °C/60 ± 5% RH, 3 Days
  Total Impurity: 0.00%
[5]; pH 2.0 buffer, 20 ± 2 °C/60 ± 5% RH, 7 Days
  Total Impurity: 0.00%
[5]; pH 2.0 buffer, 40 ± 2 °C/75 ± 5% RH, 3 Days
  Total Impurity: 0.02%
[5]; pH 2.0 buffer, 40 ± 2 °C/75 ± 5% RH, 7 Days
  Total Impurity: 1.03%
[5]; pH 2.0 buffer, Initial
  Total Impurity: 0.00%
[5]; pH 3.0 buffer, 20 ± 2 °C/60 ± 5% RH, 3 Days
  Total Impurity: 1.30%
[5]; pH 3.0 buffer, 20 ± 2 °C/60 ± 5% RH, 7 Days
  Total Impurity: 1.99%
[5]; pH 3.0 buffer, 40 ± 2 °C/75 ± 5% RH, 3 Days
  Total Impurity: 7.29%
[5]; pH 3.0 buffer, 40 ± 2 °C/75 ± 5% RH, 7 Days
  Total Impurity: 14.76%
[5]; pH 3.0 buffer, Initial
  Total Impurity: 0.06%
[5]; pH 4.0 buffer, 20 ± 2 °C/60 ± 5% RH, 3 Days
  Total Impurity: 0.00%
[5]; pH 4.0 buffer, 20 ± 2 °C/60 ± 5% RH, 7 Days
  Total Impurity: 0.01%
[5]; pH 4.0 buffer, 40 ± 2 °C/75 ± 5% RH, 3 Days
  Total Impurity: 0.04%
[5]; pH 4.0 buffer, 40 ± 2 °C/75 ± 5% RH, 7 Days
  Total Impurity: 0.12%
[5]; pH 4.0 buffer, Initial
  Total Impurity: 0.00%
[5]; pH 5.0 buffer, 20 ± 2 °C/60 ± 5% RH, 3 Days
  Total Impurity: 0.16%
[5]; pH 5.0 buffer, 20 ± 2 °C/60 ± 5% RH, 7 Days
  Total Impurity: 0.26%
[5]; pH 5.0 buffer, 40 ± 2 °C/75 ± 5% RH, 7 Days
  Total Impurity: 4.48%
[5]; pH 5.0 buffer, Initial
  Total Impurity: 0.00%
[5]; pH 6.0 buffer, 20 ± 2 °C/60 ± 5% RH, 3 Days
  Total Impurity: 0.00%
[5]; pH 6.0 buffer, 20 ± 2 °C/60 ± 5% RH, 7 Days
  Total Impurity: 0.04%
[5]; pH 6.0 buffer, 40 ± 2 °C/75 ± 5% RH, 3 Days
  Total Impurity: 0.15%
[5]; pH 6.0 buffer, 40 ± 2 °C/75 ± 5% RH, 7 Days
  Total Impurity: 0.28%
[5]; pH 6.0 buffer, Initial
  Total Impurity: 0.00%
[5]; pH 6.8 buffer, 20 ± 2 °C/60 ± 5% RH, 3 Days
  Total Impurity: 0.01%
[5]; pH 6.8 buffer, 20 ± 2 °C/60 ± 5% RH, 7 Days
  Total Impurity: 0.01%
[5]; pH 6.8 buffer, 40 ± 2 °C/75 ± 5% RH, 3 Days
  Total Impurity: 0.00%
[5]; pH 6.8 buffer, 40 ± 2 °C/75 ± 5% RH, 7 Days
  Total Impurity: 0.12%
[5]; pH 6.8 buffer, Initial
  Total Impurity: 0.00%
[5]; pH 7.0 buffer, 20 ± 2 °C/60 ± 5% RH, 3 Days
  Total Impurity: 0.02%
[5]; pH 7.0 buffer, 20 ± 2 °C/60 ± 5% RH, 7 Days
  Total Impurity: 0.04%
[5]; pH 7.0 buffer, 40 ± 2 °C/75 ± 5% RH, 3 Days
  Total Impurity: 0.7%
[5]; pH 7.0 buffer, 40 ± 2 °C/75 ± 5% RH, 7 Days
  Total Impurity: 0.69%
[5]; pH 7.0 buffer, Initial
  Total Impurity: 0.00%
[5]; pH 8.0 buffer, 20 ± 2 °C/60 ± 5% RH, 3 Days
  Total Impurity: 0.03%
[5]; pH 8.0 buffer, 20 ± 2 °C/60 ± 5% RH, 7 Days
  Total Impurity: 0.05%
[5]; pH 8.0 buffer, 40 ± 2 °C/75 ± 5% RH, 3 Days
  Total Impurity: 0.42%
[5]; pH 8.0 buffer, 40 ± 2 °C/75 ± 5% RH, 7 Days
  Total Impurity: 1.06%
[5]; pH 8.0 buffer, Initial
  Total Impurity: 0.00%
[5]; pH 9.0 buffer, 20 ± 2 °C/60 ± 5% RH, 3 Days
  Total Impurity: 1.27%
[5]; pH 9.0 buffer, 20 ± 2 °C/60 ± 5% RH, 7 Days
  Total Impurity: 1.47%
[5]; pH 9.0 buffer, 40 ± 2 °C/75 ± 5% RH, 3 Days
  Total Impurity: 3.90%
[5]; pH 9.0 buffer, 40 ± 2 °C/75 ± 5% RH, 7 Days
  Total Impurity: 6.31%
[5]; pH 9.0 buffer, Initial
  Total Impurity: 1.02%
[5]; pH 10.0 buffer, 20 ± 2 °C/60 ± 5% RH, 3 Days
  Total Impurity: 0.46%
[5]; pH 10.0 buffer, 20 ± 2 °C/60 ± 5% RH, 7 Days
  Total Impurity: 0.66%
[5]; pH 10.0 buffer, 40 ± 2 °C/75 ± 5% RH, 3 Days
  Total Impurity: 0.30%
[5]; pH 10.0 buffer, 40 ± 2 °C/75 ± 5% RH, 7 Days
  Total Impurity: 4.78%
[5]; pH 10.0 buffer, Initial
  Total Impurity: 0.15%
[5]; pH 11.0 buffer, 20 ± 2 °C/60 ± 5% RH, 3 Days
  Total Impurity: 0.14%
[5]; pH 11.0 buffer, 20 ± 2 °C/60 ± 5% RH, 7 Days
  Total Impurity: 0.22%
[5]; pH 11.0 buffer, 40 ± 2 °C/75 ± 5% RH, 3 Days
  Total Impurity: 1.99%
[5]; pH 11.0 buffer, 40 ± 2 °C/75 ± 5% RH, 7 Days
  Total Impurity: 3.69%
[5]; pH 11.0 buffer, Initial
  Total Impurity: 0.00%
[5]; pH 12.0 buffer, 20 ± 2 °C/60 ± 5% RH, 3 Days
  Total Impurity: 0.75%
[5]; pH 12.0 buffer, 20 ± 2 °C/60 ± 5% RH, 7 Days
  Total Impurity: 1.05%
[5]; pH 12.0 buffer, 40 ± 2 °C/75 ± 5% RH, 3 Days
  Total Impurity: 2.62%
[5]; pH 12.0 buffer, 40 ± 2 °C/75 ± 5% RH, 7 Days
  Total Impurity: 4.11%
[5]; pH 12.0 buffer, Initial
  Total Impurity: 0.00%
